Patent US12060347B2 (BRISTOL-MYERS SQUIBB COMPANY, priority 2016, dated 2024)

biological target: T1, human PAR4 (Homo sapiens, UniProt Q96RI0); assay: PAR4 FLIPR assay: antagonism of agonist-peptide-induced calcium mobilization in PAR4-expressing HEK293 cells; type: cell-based; conditions: H-Ala-Phe(4-F)-[…]NH2-induced intracellular calcium mobilization, 11-point curves
T1 construct: expressed in transfected cells; host or cells: HEK293 PAR4 Clone 1.2A (BMS Arctic ID 383940)
T1 sequence (Q96RI0 18-385): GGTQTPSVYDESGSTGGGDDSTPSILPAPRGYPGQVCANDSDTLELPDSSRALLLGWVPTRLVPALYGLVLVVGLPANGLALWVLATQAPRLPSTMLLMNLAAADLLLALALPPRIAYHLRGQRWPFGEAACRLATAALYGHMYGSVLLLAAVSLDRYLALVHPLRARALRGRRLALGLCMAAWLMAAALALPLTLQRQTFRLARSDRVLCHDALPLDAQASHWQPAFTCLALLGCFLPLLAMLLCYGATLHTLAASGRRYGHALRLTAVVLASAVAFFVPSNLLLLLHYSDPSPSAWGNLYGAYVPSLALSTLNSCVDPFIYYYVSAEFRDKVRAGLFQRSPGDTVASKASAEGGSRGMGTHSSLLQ

SMILES	IC50
COC(=O)c1ncc(NC(=O)O[C@H](C)COc2nc3sc(-c4cc(C)cc5nc(OC)cnc45)nc3cc2F)cn1 [Example 689, methyl (R)-5-((((1-((6-fluoro-2-(2-methoxy-7-methylquinoxalin-5-yl)thiazolo[5,4-b]pyridin-5-yl)oxy)propan-2-yl)oxy)carbonyl)amino)pyrimidine-2-carboxylate]	0.3 nM
COC(=O)c1ccc(NC(=O)O[C@H](C)COc2nc3sc(-c4cc(C)cc5nc(OC)cnc45)nc3cc2F)cn1 [Example 690, methyl (R)-5-((((1-((6-fluoro-2-(2-methoxy-7-methylquinoxalin-5-yl)thiazolo[5,4-b]pyridin-5-yl)oxy)propan-2-yl)oxy)carbonyl)amino)picolinate]	0.3 nM
COc1cnc2c(-c3nc4cc(F)c(OC[C@@H](C)OC(=O)Nc5ccc(CCO)nc5)nc4s3)cc(C)cc2n1 [Example 691, (R)-1-((6-fluoro-2-(2-methoxy-7-methylquinoxalin-5-yl)thiazolo[5,4-b]pyridin-5-yl)oxy) propan-2-yl (6-(2-hydroxyethyl)pyridin-3-yl)carbamate]	0.9 nM
COc1cnc2c(-c3nc4cc(F)c(OC[C@@H](C)OC(=O)Nc5cnc(O[C@H](C)CO)nc5)nc4s3)cc(C)cc2n1 [Example 692, (R)-1-((6-fluoro-2-(2-methoxy-7-methylquinoxalin-5-yl)thiazolo[5,4-b]pyridin-5-yl)oxy) propan-2-yl (2-(((R)-1-hydroxypropan-2-yl)oxy)pyrimidin-5-yl)carbamate]	1.8 nM
COc1cnc2c(-c3nc4cc(F)c(OC[C@@H](C)OC(=O)Nc5cnc(O[C@@H](C)CO)nc5)nc4s3)cc(C)cc2n1 [Example 693, (R)-1-((6-fluoro-2-(2-methoxy-7-methylquinoxalin-5-yl)thiazolo[5,4-b]pyridin-5-yl)oxy) propan-2-yl (2-(((S)-1-hydroxypropan-2-yl)oxy)pyrimidin-5-yl)carbamate]	1.3 nM
COc1cnc2c(-c3nc4cc(F)c(OC[C@@H](C)OC(=O)Nc5ccc(CO)nc5)nc4s3)cc(C)cc2n1 [Example 694, (R)-1-((6-fluoro-2-(2-methoxy-7-methylquinoxalin-5-yl)thiazolo[5,4-b]pyridin-5-yl)oxy) propan-2-yl (6-(hydroxymethyl)pyridin-3-yl)carbamate]	2.1 nM
COc1cnc2c(-c3nc4cc(F)c(OC[C@@H](C)OC(=O)Nc5ccnc(CCO)c5)nc4s3)cc(C)cc2n1 [Example 696, (R)-1-((6-fluoro-2-(2-methoxy-7-methylquinoxalin-5-yl)thiazolo[5,4-b]pyridin-5-yl)oxy) propan-2-yl (2-(2-hydroxyethyl)pyridin-4-yl)carbamate]	2.6 nM
COc1cnc2c(-c3nc4cc(F)c(OC[C@@H](C)OC(=O)Nc5ccnc(OCCO)c5)nc4s3)cc(C)cc2n1 [Example 697, (R)-1-((6-fluoro-2-(2-methoxy-7-methylquinoxalin-5-yl)thiazolo[5,4-b]pyridin-5-yl)oxy) propan-2-yl (2-(2-hydroxyethoxy)pyridin-4-yl)carbamate]	2.9 nM
COc1cnc2c(-c3nc4cc(F)c(OC[C@@H](C)OC(=O)Nc5ccnnc5)nc4s3)cc(C)cc2n1 [Example 698, (R)-1-((6-fluoro-2-(2-methoxy-7-methylquinoxalin-5-yl)thiazolo[5,4-b]pyridin-5-yl)oxy) propan-2-yl pyridazin-4-ylcarbamate]	17 nM
COc1cnc2c(-c3nc4cc(F)c(OC[C@@H](C)OC(=O)Nc5ccnc(OCCC(C)(C)O)c5)nc4s3)cc(C)cc2n1 [Example 699, (R)-1-((6-fluoro-2-(2-methoxy-7-methylquinoxalin-5-yl)thiazolo[5,4-b]pyridin-5-yl)oxy) propan-2-yl (2-(3-hydroxy-3-methylbutoxy)pyridin-4-yl)carbamate]	1.1 nM
COc1cnc2c(-c3nc4cc(F)c(OC[C@@H](C)OC(=O)Nc5ccc(OCCO)nc5)nc4s3)cc(C)cc2n1 [Example 700, (R)-1-((6-fluoro-2-(2-methoxy-7-methylquinoxalin-5-yl)thiazolo[5,4-b]pyridin-5-yl)oxy) propan-2-yl (6-(2-hydroxyethoxy)pyridin-3-yl)carbamate]	0.9 nM
COc1cnc2c(-c3nc4cc(F)c(OC[C@@H](C)OC(=O)Nc5cnc(OC[C@H](C)O)nc5)nc4s3)cc(C)cc2n1 [Example 701, (R)-1-((6-fluoro-2-(2-methoxy-7-methylquinoxalin-5-yl)thiazolo[5,4-b]pyridin-5-yl)oxy) propan-2-yl (2-((S)-2-hydroxypropoxy)pyrimidin-5-yl)carbamate]	2.7 nM
COc1cnc2c(-c3nc4cc(F)c(OC[C@@H](C)OC(=O)Nc5cnc(OCCC(C)(C)O)nc5)nc4s3)cc(C)cc2n1 [Example 702, (R)-1-((6-fluoro-2-(2-methoxy-7-methylquinoxalin-5-yl)thiazolo[5,4-b]pyridin-5-yl)oxy) propan-2-yl (2-(3-hydroxy-3-methylbutoxy)pyrimidin-5-yl)carbamate]	4.3 nM
COc1cnc2c(-c3nc4cc(F)c(O[C@@H](C)[C@@H](C)OC(=O)Nc5ccc6[nH]c(=O)oc6c5)nc4s3)cc(C)cc2n1 [Example 708, (2R,3S)-3-((6-fluoro-2-(2-methoxy-7-methylquinoxalin-5-yl)thiazolo[5,4-b]pyridin-5-yl)oxy)butan-2-yl (2-oxo-2,3-dihydrobenzo[d]oxazol-6-yl)carbamate]	2.6 nM
COc1cnc2c(-c3nc4cc(F)c(O[C@@H](C)[C@@H](C)OC(=O)Nc5cccnc5)nc4s3)cc(C)cc2n1 [Example 709, (2R,3S)-3-((6-fluoro-2-(2-methoxy-7-methylquinoxalin-5-yl)thiazolo[5,4-b]pyridin-5-yl)oxy)butan-2-yl pyridin-3-ylcarbamate]	0.4 nM
COc1cnc2c(-c3nc4cc(F)c(O[C@@H](C)[C@@H](C)OC(=O)Nc5ccc(C)nc5)nc4s3)cc(C)cc2n1 [Example 710, (2R,3S)-3-((6-fluoro-2-(2-methoxy-7-methylquinoxalin-5-yl)thiazolo[5,4-b]pyridin-5-yl)oxy)butan-2-yl (6-methylpyridin-3-yl)carbamate]	1.8 nM
COc1cnc2c(-c3nc4cc(F)c(O[C@@H](C)[C@@H](C)OC(=O)Nc5cnc(OC)nc5)nc4s3)cc(C)cc2n1 [Example 711, (2R,3S)-3-((6-fluoro-2-(2-methoxy-7-methylquinoxalin-5-yl)thiazolo[5,4-b]pyridin-5-yl)oxy)butan-2-yl (2-methoxypyrimidin-5-yl)carbamate]	2.4 nM
COC(=O)c1ncc(NC(=O)O[C@H](C)[C@H](C)Oc2nc3sc(-c4cc(C)cc5nc(OC)cnc45)nc3cc2F)cn1 [Example 712, methyl 5-(((((2R,3S)-3-((6-fluoro-2-(2-methoxy-7-methylquinoxalin-5-yl)thiazolo[5,4-b]pyridin-5-yl)oxy)butan-2-yl)oxy)carbonyl)amino)pyrimidine-2-carboxylate]	3.2 nM
COc1cnc2c(-c3nc4cc(F)c(O[C@@H](C)[C@@H](C)OC(=O)Nc5ccncc5)nc4s3)cc(C)cc2n1 [Example 713, (2R,3S)-3-((6-fluoro-2-(2-methoxy-7-methylquinoxalin-5-yl)thiazolo[5,4-b]pyridin-5-yl)oxy)butan-2-yl pyridin-4-ylcarbamate]	1.8 nM
